Results reported in patent publication US20140179800A1, “Inhibition of the Survival of Bladder Cancer by Cyclohexenone Compounds from Antrodia Camphorata” (Golden Biotechnology Corporation, priority 2009, published 2014).

System: bladder cancer cell line TSGH-8301
Assay: In vitro survival assay (MTT) for anti-bladder cancer effects
Format: cell-based
Settings: TSGH-8301 human bladder carcinoma cells, 48 hours, survival rate
Protocol: Inhibiting effects of bladder cancer cells by cyclohexenone compounds of Antrodia camphorata from example 1 were assessed according to the anticancer-drug screening model of National Cancer Institute (NCI). The compound 4-hydroxy-2,3-dimethoxy-6-methyl-5-(3,7,11-trimethyl-dodeca-2,6,10-trienyl)-cyclohex-2-enone from example 1 was added into the culture media of bladder cancer cell line TSGH-8301 to determine the survival rates. Survival of cell was analyzed using MTT assay. TSGH-8301 cell line was a human bladder carcinoma cell line.
MTT assay is commonly used to analyze cell proliferation, survival rate of viable cells and cytotoxicity. MTT (3[4,5-dimethylthiazol-2-yl]-2,5-diphenyltetrazolium bromide) is a yellow dye which can be converted to water-insoluble purple formazan on the reductive cleavage of its tetrazolium ring by the succinate tetrazolium reductase in mitochondria of cells. The amount of formazan produced is used to detect the number of viable cells and calculate the survival rates.
The TSGH-8301 cells were cultivated in DMEM medium supplemented with 10% fetal bovine serum, 100 U/ml of Penicillin and 100 μg/ml of Streptomycin at 37° C., 5% CO2 for 24 hours. Proliferated cells were washed once with PBS, treated with 1× trypsin-EDTA, and centrifuged at 1200 rpm for 5 min. […] The absorbances were measured at 570 nm with an ELISA Reader to determine the survival rates.

## COC1=C(OC)C(O)C(C/C=C(\C)CC/C=C(\C)CCC=C(C)C)C(C)C1=O (stereo not shown) [formula 2, 4-hydroxy-2,3-dimethoxy-6-methyl-5-(3,7,11-trimethyl-dodeca-2,6,10-trienyl)-cyclohex-2-enone]
  IC50: 1.05 µg/mL
